{"source": "ChEMBL document CHEMBL5608208", "about": "“Design, synthesis of griseofamine A derivatives and development of potent antibacterial agents against MRSA” (Eur J Med Chem, 2024)", "key": {"[1]": {"test": "AUC(0 to t) in ICR mouse at 1 mg/kg, iv", "format": "ADME, organism-based", "settings": "in vivo"}, "[2]": {"test": "Hemolytic activity in rabbit RBC assessed as hemolysis rate at 23.5 ug/ml incubated for 1 hr by microplate reader assay", "format": "toxicity, cell-based, Oryctolagus cuniculus, Erythrocyte", "settings": "rabbit red blood cells (erythrocytes), at 23.5 µg/mL, read-out: Activity"}, "[3]": {"test": "Volume of distribution in ICR mouse at 5 mg/kg, po", "format": "ADME, organism-based", "settings": "in vivo"}, "[4]": {"test": "Half-life in ICR mouse at 1 mg/kg, iv", "format": "ADME, organism-based", "settings": "in vivo"}, "Staphylococcus aureus [5]": {"tested_on": "Staphylococcus aureus", "test": "Bactericidal activity against methicillin resistant Staphylococcus aureus ATCC 43300 incubated for 18 to 24 hrs", "format": "functional", "settings": "time 18-24 hrs"}, "[6]": {"test": "Clearance in ICR mouse at 5 mg/kg, po", "format": "ADME, organism-based", "settings": "in vivo"}, "[7]": {"test": "Acute toxicity in ICR mouse assessed as change in food intake at 2 g/kg, po measured after 7 days", "format": "organism-based", "settings": "in vivo, 2000 mg/kg, 168 h, time 7 day"}, "Staphylococcus aureus [8]": {"tested_on": "Staphylococcus aureus", "test": "Antibacterial activity against methicillin resistant Staphylococcus aureus ATCC 43300 infected in ICR mouse systemic infection model assessed as reduction in bacterial burden in lung at 2.5 mg/kg, ip pretreated with bacteria for 30 mins followed by compound addition and measured for 7 days", "format": "functional, organism-based", "settings": "time 7.0 day"}, "[9]": {"tested_on": "Staphylococcus epidermidis", "test": "Antibacterial activity against Staphylococcus epidermidis ATCC 12228 incubated for 18 hrs by serial two-fold dilution method", "format": "functional"}, "Staphylococcus aureus [10]": {"tested_on": "Staphylococcus aureus", "test": "Drug resistance development in methicillin resistant Staphylococcus aureus […] assessed as increase in MIC value measured after 7 passages by broth microdilution method", "format": "functional, organism-based"}, "Staphylococcus aureus [11]": {"tested_on": "Staphylococcus aureus", "test": "Antibacterial activity against methicillin resistant Staphylococcus aureus ATCC 33592 incubated for 18 hrs by serial two-fold dilution method", "format": "functional"}, "[12]": {"test": "Acute toxicity in ICR mouse assessed as change in water intake at 2 g/kg, po measured after 7 days", "format": "organism-based", "settings": "in vivo, 2000 mg/kg, 168 h, time 7 day"}, "[13]": {"tested_on": "Staphylococcus epidermidis", "test": "Drug resistance development in Staphylococcus epidermidis ATCC 12228 assessed as increase in MIC value measured after 8 passages by broth microdilution method", "format": "functional"}, "Staphylococcus aureus [14]": {"tested_on": "Staphylococcus aureus", "test": "Antibacterial activity against methicillin resistant Staphylococcus aureus ATCC 43300 infected in ICR mouse systemic infection model at 1.25 to 5 mg/kg, ip pretreated with bacteria for 30 mins followed by compound addition and measured for 7 days", "format": "functional", "settings": "dose 1.25-5 mg/kg, time 7 day"}, "[15]": {"test": "Acute toxicity in ICR mouse at 2 g/kg, po measured after 7 days", "format": "organism-based", "settings": "in vivo, 2000 mg/kg, time 7 day"}, "Staphylococcus aureus [16]": {"tested_on": "Staphylococcus aureus", "test": "Antibacterial activity against methicillin resistant Staphylococcus aureus ATCC 43300 infected in ICR mouse systemic infection model assessed as reduction in bacterial burden in liver at 2.5 mg/kg, ip pretreated with bacteria for 30 mins followed by compound addition and measured for 7 days", "format": "functional, organism-based", "settings": "time 7.0 day"}, "[17]": {"test": "Tmax in ICR mouse at 1 mg/kg, iv", "format": "ADME, organism-based", "settings": "in vivo"}, "[18]": {"test": "Cytotoxicity against mouse MLg cells assessed as survival rate at 23.5 ug/ml incubated for 24 hrs by MTS method", "format": "toxicity, cell-based", "settings": "at 23.5 µg/mL, read-out: Survival"}}, "note": "Calls of active or inactive are those of the source. The rule behind the calls is not given here."}
{"compound": "C/C(O)=C1\\C(=O)[C@@H]2Cc3c([nH]c4ccccc34)[C@@H](c3ccc(-c4cc(F)cc(F)c4)cc3)N2C1=O", "values": [{"measurement": "AUC(0-t)", "setting": "[1]", "result": 4240, "unit": "ng·h/mL"}, {"measurement": "hemolysis at 1 h, 23.5 ug/ml", "setting": "[2]", "result": "< 5", "unit": "%"}, {"measurement": "Vd", "setting": "[3]", "result": 21.714, "unit": "L/kg"}, {"measurement": "half-life", "setting": "[4]", "result": 7.59, "unit": "h"}, {"measurement": "MBC", "setting": "Staphylococcus aureus [5]", "result": 1, "unit": "µg/mL"}, {"measurement": "CL/F", "setting": "[6]", "result": 32.5, "unit": "mL/min/kg"}, {"measurement": "Activity", "setting": "[7]", "result": "Non-Toxic"}, {"measurement": "Activity", "setting": "Staphylococcus aureus [8]", "result": "Active"}, {"measurement": "MIC", "setting": "[9]", "result": 0.125, "unit": "µg/mL"}, {"measurement": "Activity", "setting": "Staphylococcus aureus [10]", "result": "inactive"}, {"measurement": "MIC", "setting": "Staphylococcus aureus [11]", "result": 0.063, "unit": "µg/mL"}, {"measurement": "Activity", "setting": "[12]", "result": "Non-Toxic"}, {"measurement": "MIC", "setting": "[13]", "result": 2, "unit": "µg/mL"}, {"measurement": "Activity", "setting": "Staphylococcus aureus [14]", "result": ">50", "unit": "%"}, {"measurement": "LD50 at 168 h", "setting": "[15]", "result": "> 2000", "unit": "mg/kg"}, {"measurement": "Activity", "setting": "Staphylococcus aureus [16]", "result": "Active"}, {"measurement": "Tmax", "setting": "[17]", "result": 1.8, "unit": "min"}, {"measurement": "viability at 24 h, 23.5 ug/ml", "setting": "[18]", "result": "> 80", "unit": "%"}]}
